Laboratory results as given in PubChem BioAssay AID179 (DTP/NCI, 2004).
Active and inactive are the calls of the source.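 Rule for the calls: active = compounds giving half or more protection of infected cells from virus-caused growth loss, again on retest; inactive = the rest.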 Where a SMILES comes first, the peptide text is derived from it. The star is where a group is joined. Boc = CC(C)(C)OC(=O)*; Bn = c1ccc(C*)cc1

System: CEM cells HIV-1 protection, formazan growth assay
Assay: NCI AIDS Antiviral Assay
Settings: for IC50: measured here: growth of uninfected CEM cells
Outline: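 Five concentrations of each compound were applied to infected and uninfected human CEM cells. Protection from HIV-1 was judged from growth measured with a soluble formazan assay.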

## CCN(CCCN(CC)C(=O)Nc1ccccc1)C(=O)Nc1ccccc1
  EC50: > 200 µM
  IC50: 155 µM

## CCCCCCCCCCCCCC(=O)OCC(CCS(=O)(=O)O[C@H]1CC[C@@]2(C)C(=CC[C@@H]3C2CC[C@]2(C)C(=O)CCC32)C1)OC(=O)CCCCCCCCCCCCC (some centres undefined)
  EC50: 39.8 µM
  IC50: > 100 µM

## Cc1cccc2c1CC(C1OC(=O)c3ccccc31)C2=O (centres undefined)
  EC50: > 100 µM
  IC50: > 100 µM

## Cc1cc(Cl)c(O)c(-c2cc(-c3cccc([N+](=O)[O-])c3)c3c(N)[nH]c(=S)nc3n2)c1
  EC50: > 200 µM
  IC50: 3.89 µM

## COc1cccc(NC(=O)C(=O)C(C(=O)c2ccccc2F)C2OC(=O)c3ccccc32)c1 (centres undefined)
  EC50: > 288 µM
  IC50: 10.7 µM

## COc1ccc(NC(=O)c2c(N)c(C#N)c3n2CCC3)cc1
  EC50: > 200 µM
  IC50: > 200 µM

## CCOC(=O)c1sc(SC)nc1NC(=O)c1ccc([N+](=O)[O-])cc1
  EC50: > 200 µM
  IC50: > 200 µM

## CN1C/C(=C\c2ccc(Cl)cc2)C(=O)/C(=C/c2ccc(Cl)cc2)C1
  EC50: > 200 µM
  IC50: 0.417 µM

## Clc1cc2ncn(C3CCCCO3)c2cc1Cl (centres undefined)
  EC50: > 200 µM
  IC50: 45.7 µM

## CCCCCCC[CH2][Sn]([Cl])([Cl])[CH2]CCCCCCC
  outcome: inactive

## CNC(=O)Nn1c(SC)nc2ccccc21
  EC50: > 200 µM
  IC50: > 200 µM

## Clc1cc(Cl)cc(C2ON=C(c3ccccc3)N2C23CC4CC(CC(C4)C2)C3)c1 (centres undefined)
  EC50: > 200 µM
  IC50: > 200 µM

## O=C(Nc1ccccc1)c1cc(S(=O)(=O)N2CCNC2=O)c(S)cc1Cl
  EC50: 112 µM
  IC50: 132 µM

## CCOC(=O)C(CS)NC(=O)CCCCCCCC(=O)NC(CS)C(=O)OCC (centres undefined)
  EC50: > 200 µM
  IC50: 102 µM

## COC(=O)C1C(=O)N(C)c2cc(C)c(C)cc2C1(C)C (centres undefined)
  EC50: > 200 µM
  IC50: > 200 µM

## CC1(C)OC[C@@H]([C@H](C=O)OCc2ccccc2)O1
  EC50: > 200 µM
  IC50: > 200 µM

## O=C1/C(=C/c2ccc([N+](=O)[O-])cc2)CCCc2ccccc21
  EC50: > 141 µM
  IC50: > 141 µM

## O=c1c2ccccc2[nH]c2c(Cl)cc(Cl)c(N3CCCCC3)c12
  EC50: > 200 µM
  IC50: 12.9 µM

## N#C/C=C\c1ccc(Cl)cc1
  EC50: > 43.7 µM
  IC50: > 43.7 µM

## O=C1N/C(=C\[N+](=O)[O-])c2ccccc21
  EC50: > 501 µM
  IC50: 263 µM

## C[N+](C)(C)c1ccc2c(c1)N(S(C)(=O)=O)CC2CCl (centres undefined)
  outcome: inactive

## CN(/N=C\c1ccccc1Cl)C(c1ccccc1Cl)N(C)/N=C/c1ccccc1Cl (centres undefined)
  outcome: inactive

## COc1ccc(Nc2nnc(CCCCCCCCc3nnc(Nc4ccc(OC)cc4)o3)o2)cc1
  EC50: > 200 µM
  IC50: > 200 µM

## CCOc1ccc(/C=N/NC(=O)C(=O)N/N=C/c2ccc(OCC)c(OCC)c2)cc1OCC
  EC50: > 200 µM
  IC50: > 200 µM

## COc1nc(NC2OC(CO)C(O)C(O)C2O)cc(=O)n1C (centres undefined)
  outcome: inactive

## Cc1c(C(N)=C(C#N)C#N)c(=N)oc2ccccc12
  EC50: > 200 µM
  IC50: 36.3 µM

## C/C(CC(=O)Nc1cccc([N+](=O)[O-])c1)=N\NC(=O)C[n+]1ccccc1
  EC50: > 631 µM
  IC50: 240 µM

## COC(=O)C(CC(C)C)NC(=O)CNC(=O)C(Cc1ccc(OCc2ccccc2)cc1)NC(=O)C(COCc1ccccc1)NC(=O)OC(C)(C)C (centres undefined) (Boc-S(Bn)Y(Bn)GL-OMe; configuration not given here)
  EC50: > 200 µM
  IC50: 115 µM

## O=C1C=CC(=O)c2c(O)cccc21
  outcome: inactive

## CC(=O)OCC(OC(C)=O)C(OC(C)=O)C(Cn1c(=O)cc(C)c2ccc(C)c(C)c21)OC(C)=O (centres undefined)
  EC50: > 200 µM
  IC50: > 200 µM

## COC[C@@H](N=CN1CCc2cc(OC)c(OC)cc2C1)C(C)(C)C
  EC50: > 741 µM
  IC50: > 741 µM

## CN(C)c1nc(=Nc2ccc3ccccc3c2)ss1
  outcome: inactive

## CCCCCCCc1cc(OC(=O)c2c(C)cc(OC)cc2O)cc(O)c1C(=O)O
  EC50: > 162 µM
  IC50: 83.2 µM

## O=C(c1ccccc1)c1c(C(=O)c2ccccc2)c(-c2ccccc2)c2c(-c3ccccc3)sc(-c3ccccc3)c2c1-c1ccccc1
  outcome: inactive

## O=C(O)CC1CC2CC(=O)C1C2 (centres undefined)
  EC50: > 200 µM
  IC50: > 200 µM

## CN(C)c1ccc(/C=C(\C#N)c2cccc(I)c2)cc1
  EC50: > 2 µM
  IC50: 0.129 µM

## C=C1C(OC)O[C@@H]2O[C@@]3(C)CC[C@H]4[C@H](C)CC[C@@H]1[C@@]24O3 (some centres undefined)
  EC50: > 200 µM
  IC50: > 200 µM

## CC(C)c1ccc(O)c(=O)cc1
  outcome: inactive

## Cc1cc(N(CCC#N)CCC#N)ccc1N=Nc1cccc(C(=O)O)c1
  EC50: > 72.4 µM
  IC50: 57.5 µM

## O=S(CCCl)c1c2ccccc2nc2ccccc12 (centres undefined)
  EC50: > 200 µM
  IC50: 30.9 µM

## CN1CNC2C(=O)CCC2c2ccccc21 (centres undefined)
  EC50: > 1150 µM
  IC50: 676 µM

## COc1ccc(N=Nc2cc(OC)c(N=Nc3c(O)c4ccccc4[nH]c3=O)cc2OC)cc1
  EC50: > 100 µM
  IC50: 15.5 µM

## CN(C(=O)c1ccco1)C(=S)N1CCN(c2ccccn2)CC1
  EC50: > 398 µM
  IC50: 209 µM

## O=c1c2ccccc2nc2[nH][nH]c(=S)n12
  EC50: > 200 µM
  IC50: 195 µM

## COC(=O)c1c/c(=N\NC(=O)CC(=O)Nc2ccccc2Cl)c2ccccc2o1
  EC50: 166 µM
  IC50: 302 µM

## Nc1c(C(=O)O)nnc2cc(Cl)ccc12
  EC50: > 200 µM
  IC50: 66.1 µM

## CCCCCC(=O)Nc1n[nH]nc1C#N
  EC50: > 200 µM
  IC50: > 200 µM

## Oc1c(OCc2nnc(CCCCCCCCc3nnc(COc4ccc5ccccc5c4O)o3)o2)ccc2ccccc12
  EC50: > 200 µM
  IC50: > 200 µM

## Cc1cccc(/C=N\NC(=S)N2CCCCC2)n1
  EC50: > 200 µM
  IC50: 0.0631 µM

## Cc1cc2ccccc2n1CC(=O)N1CCCC1
  EC50: > 200 µM
  IC50: > 200 µM

## Cc1c(C)c2c(c(N)c1C#N)C(=O)N(CCN1CCNCC1)C2=O
  EC50: > 200 µM
  IC50: 20.4 µM

## C/C=C/C=C\C=C/C(O)C(C)C(CCC(C)C1OC(=O)C=CC1C)OP(=O)(O)O (centres undefined)
  EC50: > 2 µM
  IC50: 0.129 µM

## CC(=O)Nc1cc(N=Nc2ccc(N=Nc3ccc(NC(=O)c4ccc(N)cc4)cc3C)cc2C)c(S(=O)(=O)O)cc1N=Nc1ccc(S(=O)(=O)O)cc1
  EC50: 12.9 µM
  IC50: 155 µM

## NC1=Nc2cc(Cl)ccc2Sc2nc3ccccc3n21
  EC50: > 200 µM
  IC50: 20.9 µM

## O=C1[C@H](Cl)[C@H]2c3cc4ccccc4nc3Oc3ccccc3N12
  EC50: > 22.4 µM
  IC50: > 22.4 µM

## O=C1c2ccccc2Sc2ccccc2N1CCCCN1CCN(c2ccc(F)cc2)CC1
  EC50: > 200 µM
  IC50: > 200 µM

## COc1cc(OC)c2ccc(=O)oc2c1
  EC50: > 91.2 µM
  IC50: > 91.2 µM

## O=[N+]([O-])c1cc(Cl)cc2cc(Br)cnc12
  EC50: > 200 µM
  IC50: > 200 µM

## O=C(Nc1ccc(C2=NCCN2)cc1)C1CCC(C(=O)Nc2ccc(C3=NCCN3)cc2)CC1 (centres undefined)
  EC50: > 200 µM
  IC50: 11 µM

## CC(C)OC1CC(C)(C)c2c(-c3ccccc3)nn(-c3ccccc3)c2O1 (centres undefined)
  EC50: > 61.7 µM
  IC50: 38 µM

## C/C=C1\C=[N+]([O-])C2CC1C(C(=O)OC)C13C[C@@H](OC)OC21Nc1ccccc13 (some centres undefined)
  outcome: inactive

## CN(C(=O)Cc1ccccc1)n1cnn(CC(=O)OC(C)(C)C)c1=S
  EC50: > 200 µM
  IC50: > 200 µM

## CC(C)[N+](C)(C)CC(O)COc1cccc2ccccc12 (centres undefined)
  EC50: > 200 µM
  IC50: > 200 µM

## N#CCN(Cc1ccccc1)[C@H]1CCC[C@]1(O)/C=C/c1ccc2c(c1)OCO2
  EC50: > 200 µM
  IC50: 32.4 µM
